The record followed here is patent publication US20230135894A1, “MK2 DEGRADERS AND USES THEREOF” (Kymera Therapeutics, Inc., priority 2021, published 2023).

Experiment [1] addresses T1, MK2 (Homo sapiens, UniProt P49137). The experiment in a line: MK2 degradation in human THP-1 monocytic cells (MSD, 24 h). The format is cell-based. Further details: endogenous in cells. Particulars: for Dmax: THP-1, THP-1 cells; for DC50: THP-1 cells, read-out: MK2 MSD THP-1 degradation 24 h GMean External Abs DC50. In a few lines: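 Readout: residual MK2 protein in THP-1 lysates, measured by MSD electrochemiluminescence sandwich assay after 24 h compound exposure (≤10-point serial dilutions, 0.1% DMSO, 37 °C). Curves normalised between lysis-buffer and DMSO-cell signals; DC50 by 4-parameter logistic fit.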

Experiment [2] concerns the target T1, MK2. In words: MK2 degradation in human SW1353 cells (MSD, 24 h). The experiment is classed as cell-based. Further details: endogenous in cells; host or cells: SW-1353 (ATCC HTB-94); key to MK2 MSD SW 1353 24 h Dmax %: —: “-”=not tested or inactive. The conditions noted are these: for Dmax: read-out: MK2 MSD SW 1353 24 h Dmax %; for DC50: read-out: MK2 MSD SW1353 degradation 24 h GMean External Abs DC50. Put shortly:
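DC50 derived by 4-parameter logistic fit, with DMSO-treated signal as top and lysis-buffer signal as bottom. Remaining MK2 was measured by MSD electrochemiluminescent sandwich assay in RIPA lysates of human SW1353 cells exposed for 24 h at 37 °C to serially diluted compound in 0.1% DMSO.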

T1 sequence (P49137 whole entry): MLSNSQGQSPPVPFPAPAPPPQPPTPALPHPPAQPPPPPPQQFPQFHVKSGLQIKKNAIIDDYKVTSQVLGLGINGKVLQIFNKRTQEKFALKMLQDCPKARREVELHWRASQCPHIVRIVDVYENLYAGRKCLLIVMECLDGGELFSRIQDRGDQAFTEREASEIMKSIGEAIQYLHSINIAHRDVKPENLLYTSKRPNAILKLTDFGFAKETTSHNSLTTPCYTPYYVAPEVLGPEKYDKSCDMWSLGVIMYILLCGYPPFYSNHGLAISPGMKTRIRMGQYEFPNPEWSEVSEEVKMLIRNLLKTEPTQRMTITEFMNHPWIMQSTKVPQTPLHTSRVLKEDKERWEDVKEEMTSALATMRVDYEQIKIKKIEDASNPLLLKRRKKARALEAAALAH

Take `C[C@@H]1CNc2c(sc3ccc4nc(-c5ccc(N6CCN(CCc7ccc8c(c7)n(C)c(=O)n8C7CCC(=O)NC7=O)CC6)nc5)ccc4c23)C(=O)N1` (some centres unmarked) [Compound I-279]: on MK2 [1], the Dmax (usually the greatest extent of degradation seen) is over 75% and the DC50 (in general, the midpoint of the concentration-degradation curve) was under 1 nM. Besides, at MK2 [2], the Dmax was over 75% and the 50% degradation concentration (DC50) was under 1 nM.
For the molecule `C[C@@H]1CNc2c(sc3ccc4nc(-c5ccc(N6CCN(CCc7ccc8c(c7)n(C)c(=O)n8C7CCC(=O)NC7=O)CC6)cc5)ccc4c23)C(=O)N1` (some centres unmarked) [Compound I-280], the Dmax at MK2 [1] and on MK2 [2] was over 75% throughout. In addition, the DC50 on MK2 [1] and on MK2 [2] was under 1 nM in each case.
On to `C[C@@H]1CNc2c(sc3ccc4nc(-c5cnc(N6CCN(CC7CCN(c8cccc9c8n(C)c(=O)n9C8CCC(=O)NC8=O)CC7)CC6)nc5)ccc4c23)C(=O)N1` (some centres unmarked) [Compound I-281], for which, at MK2 [1], the Dmax is over 75% and the DC50 was under 1 nM. At MK2 [2], the Dmax was over 75% and the DC50 lay within 1 to 10 nM.
As to `C[C@@H]1CNc2c(sc3ccc4nc(-c5cnc(N6CCN(CC7CCN(c8ccc9c(c8)n(C)c(=O)n9C8CCC(=O)NC8=O)CC7)CC6)nc5)ccc4c23)C(=O)N1` (some centres unmarked) [Compound I-282], on MK2 [1], the Dmax was over 75% and the half-maximal degradation concentration (DC50) is under 1 nM. On MK2 [2], the Dmax is over 75% and the DC50 was under 1 nM.
For the molecule `Cc1nc(N2CCN(CC3CCN(c4ccc5c(c4)n(C)c(=O)n5C4CCC(=O)NC4=O)CC3)CC2)ccc1-c1ccc2c(ccc3sc4c(c32)NC[C@@H](C)NC4=O)n1` (some centres unmarked) [Compound I-283], at MK2 [1], the Dmax is over 75% and the DC50 is under 1 nM. Further, on MK2 [2], the Dmax was over 75% and the 50% degradation concentration (DC50) is under 1 nM.
In the case of `C[C@@H]1CNc2c(sc3ccc4nc(-c5cc(N6CCC(CN7CCC(c8cccc9c8n(C)c(=O)n9C8CCC(=O)NC8=O)CC7)CC6)ccc5F)ccc4c23)C(=O)N1` (some centres unmarked) [Compound I-284], on MK2 [1], the Dmax was over 75% and the half-maximal degradation concentration (DC50) fell in the range of 1 to 10 nM. Besides, on MK2 [2], the Dmax was over 75% and the half-maximal degradation concentration (DC50) lay in the range of 1 to 10 nM.
With `C[C@@H]1CNc2c(sc3ccc4nc(-c5cc(N6CCC(CN7CCN(c8cccc9c8n(C)c(=O)n9C8CCC(=O)NC8=O)CC7)CC6)ccc5F)ccc4c23)C(=O)N1` (some centres unmarked) [Compound I-285], on MK2 [1], the Dmax was over 75% and the DC50 was in the range of 1 to 10 nM. At MK2 [2], the Dmax was over 75% and the DC50 fell in the range of 1 to 10 nM.
With `C[C@@H]1CNc2c(sc3ccc4nc(-c5cc(N6CCN(CCCCCCCCc7cccc8c7n(C)c(=O)n8C7CCC(=O)NC7=O)CC6)ccc5F)ccc4c23)C(=O)N1` (some centres unmarked) [Compound I-286], at MK2 [1], the greatest degradation seen (Dmax) was 50 to 75% and the DC50 was 10 to 100 nM. Besides, on MK2 [2], the Dmax was over 75% and the DC50 lay in the range of 10 to 100 nM.
For the molecule `C[C@@H]1CNc2c(sc3ccc4nc(-c5ccc(N6CCN(CCCc7ccc8c(c7)n(C)c(=O)n8C7CCC(=O)NC7=O)CC6)nc5)ccc4c23)C(=O)N1` (some centres unmarked) [Compound I-287], on MK2 [1], the greatest degradation seen (Dmax) was over 75% and the DC50 is under 1 nM. On MK2 [2], the Dmax is over 75% and the DC50 was under 1 nM.
As for `C[C@@H]1CNc2c(sc3ccc4nc(-c5ccc(N6CCN(CCCc7cccc8c7n(C)c(=O)n8C7CCC(=O)NC7=O)CC6)nc5)ccc4c23)C(=O)N1` (some centres unmarked) [Compound I-288], on MK2 [1], the Dmax was over 75% and the DC50 is under 1 nM. Besides, on MK2 [2], the Dmax was over 75% and the DC50 was under 1 nM.
In the case of `C[C@@H]1CNc2c(sc3ccc4nc(-c5ccc(N6CCN(CC7CCN(c8ccc9c(c8)n(C)c(=O)n9C8CCC(=O)NC8=O)CC7)CC6)cc5F)ccc4c23)C(=O)N1` (some centres unmarked) [Compound I-289], at MK2 [1], the greatest degradation seen (Dmax) was over 75% and the half-maximal degradation concentration (DC50) was under 1 nM. On MK2 [2], the Dmax was over 75% and the DC50 lay within 1 to 10 nM.
Regarding `C[C@@H]1Cc2[nH]c(-c3ccnc(-c4ccc(N5CCN(CC6CCN(c7cccc8c7n(C)c(=O)n8C7CCC(=O)NC7=O)CC6)CC5)cc4)c3)cc2C(=O)N1` (some centres unmarked) [Compound I-290], at MK2 [1], the Dmax was over 75% and the half-maximal degradation concentration (DC50) is under 1 nM. At MK2 [2], the Dmax is over 75% and the DC50 was in the range of 1 to 10 nM.
In the case of `Cc1cc(N2CCC(CN3CCC(c4ccc5c(c4)n(C)c(=O)n5C4CCC(=O)NC4=O)CC3)CC2)ccc1-c1ccc2c(ccc3sc4c(c32)NC[C@@H](C)NC4=O)n1` (some centres unmarked) [Compound I-291], at MK2 [1], the Dmax was over 75% and the half-maximal degradation concentration (DC50) is under 1 nM. Further, at MK2 [2], the Dmax was over 75% and the DC50 was under 1 nM.
Turning to `C[C@@H]1CNc2c(sc3ccc4nc(-c5ccc(N6CCC(CN7CCN(c8ccc9c(c8)n(C)c(=O)n9C8CCC(=O)NC8=O)CC7)CC6)cc5Cl)ccc4c23)C(=O)N1` (some centres unmarked) [Compound I-292], at MK2 [1], the Dmax is over 75% and the DC50 was under 1 nM. For the same molecule, on MK2 [2], the Dmax was over 75% and the DC50 was in the range of 1 to 10 nM.
For the molecule `C[C@@H]1CNc2c(sc3ccc4nc(-c5cccc(N6CCC7(CC6)CN(CCCCCCc6cccc8c6n(C)c(=O)n8C6CCC(=O)NC6=O)C7)c5)ccc4c23)C(=O)N1` (some centres unmarked) [Compound I-293], the maximal degradation (Dmax) at MK2 [1] and on MK2 [2] was over 75% in each case. For the same molecule, the DC50 was under 1 nM at MK2 [1] and 10 to 100 nM at MK2 [2].
For the molecule `C[C@@H]1CNc2c(sc3ccc4nc(-c5ccc(N6CCC7(CC6)CN(CCCCCCc6cccc8c6n(C)c(=O)n8C6CCC(=O)NC6=O)C7)cc5)ccc4c23)C(=O)N1` (some centres unmarked) [Compound I-294], the greatest degradation seen (Dmax) at MK2 [1] and at MK2 [2] was over 75% throughout. For the same molecule, the figures for the DC50 on MK2 [1] and at MK2 [2] were under 1 nM and 1 to 10 nM, respectively.
As for `O=C1CCC(N2Cc3cc(N4CCN(CC5CCN(c6ccc(-c7cc(-c8cc9c([nH]8)CCNC9=O)ccn7)c(F)c6)CC5)CC4)ccc3C2=O)C(=O)N1` (centres unmarked) [Compound I-295], on MK2 [1], the Dmax is 50 to 75% and the DC50 lay within 10 to 100 nM. Besides, at MK2 [2], the Dmax was over 75% and the 50% degradation concentration (DC50) fell in the range of 10 to 100 nM.
With `C[C@@H]1CNc2c(sc3ccc4nc(-c5cccc(C6CCN(CCN7CCC(CCc8cccc9c8n(C)c(=O)n9C8CCC(=O)NC8=O)CC7)CC6)c5)ccc4c23)C(=O)N1` (some centres unmarked) [Compound I-296], the DC50 at MK2 [1] lay in the range of 1 to 10 nM. In addition, on MK2 [2], the “MK2 MSD SW 1353 24 h Dmax %” value was “—” and the DC50 lay within 10 to 100 nM.
As to `C[C@@H]1CNc2c(sc3ccc4nc(-c5ccc(N6CCC(CN7CCC(c8ccc9c(c8)n(C)c(=O)n9C8CCC(=O)NC8=O)CC7)CC6)cc5F)ccc4c23)C(=O)N1` (some centres unmarked) [Compound I-297], at MK2 [1], the Dmax is over 75% and the DC50 was under 1 nM. Further, at MK2 [2], the Dmax was over 75% and the DC50 is under 1 nM.
In the case of `Cc1cc(N2CCC(CN3CCN(c4ccc5c(c4)n(C)c(=O)n5C4CCC(=O)NC4=O)CC3)CC2)ccc1-c1ccc2c(ccc3sc4c(c32)NC[C@@H](C)NC4=O)n1` (some centres unmarked) [Compound I-298], the Dmax at MK2 [1] and at MK2 [2] was over 75% each time. Also, the DC50 at MK2 [1] and at MK2 [2] was under 1 nM in each case.
Regarding `C[C@@H]1CNc2c(sc3ccc4nc(-c5ccc(N6CCC(CN7CCC(c8cccc9c8n(C)c(=O)n9C8CCC(=O)NC8=O)CC7)CC6)cc5F)ccc4c23)C(=O)N1` (some centres unmarked) [Compound I-299], at MK2 [1], the Dmax was over 75% and the half-maximal degradation concentration (DC50) was under 1 nM. Also, at MK2 [2], the greatest degradation seen (Dmax) was over 75% and the 50% degradation concentration (DC50) is under 1 nM.
Regarding `Cn1c(=O)n(C2CCC(=O)NC2=O)c2cccc(CCCCCCN3CCC4(CC3)CNC(=O)c3c4[nH]c4c3CCc3cnc(-c5ccccc5F)cc3-4)c21` (centres unmarked) [Compound I-300], the Dmax at MK2 [1] and on MK2 [2] was under 50% throughout. Also, the DC50 on MK2 [1] and at MK2 [2] was over 100 nM in each case.
Consider `O=C1CCC(N2Cc3cc(N4CCN(CC5CCN(c6ccc(F)c(-c7cc(-c8cc9c([nH]8)CCNC9=O)ccn7)c6)CC5)CC4)ccc3C2=O)C(=O)N1` (centres unmarked) [Compound I-301], for which, on MK2 [1], the Dmax is under 50% and the DC50 was over 100 nM. For the same molecule, at MK2 [2], the Dmax was under 50% and the DC50 is over 100 nM.
For the molecule `C[C@@H]1CNc2c(sc3ccc4nc(-c5ccc(N6CCN(CC7CCN(c8ccc9c(c8)CN(C8CCC(=O)NC8=O)C9=O)CC7)CC6)cc5)ccc4c23)C(=O)N1` (some centres unmarked) [Compound I-302], the Dmax on MK2 [1] and on MK2 [2] was over 75% throughout. The DC50 at MK2 [1] and on MK2 [2] was 1 to 10 nM each time.
In the case of `C[C@@H]1CNc2c(sc3ccc4nc(-c5cccc(N6CCN(CC7CCN(c8ccc9c(c8)CN(C8CCC(=O)NC8=O)C9=O)CC7)CC6)c5)ccc4c23)C(=O)N1` (some centres unmarked) [Compound I-303], the Dmax at MK2 [1] and at MK2 [2] was over 75% throughout. The DC50 on MK2 [1] was under 1 nM; on MK2 [2] it was 1 to 10 nM.
For `C[C@@H]1CNc2c(sc3ccc4nc(-c5cccc(N6CCC(CN7CCN(c8ccc9c(c8)CN(C8CCC(=O)NC8=O)C9=O)CC7)CC6)c5)ccc4c23)C(=O)N1` (some centres unmarked) [Compound I-304], on MK2 [1], the Dmax is over 75% and the DC50 is 1 to 10 nM. In addition, at MK2 [2], the Dmax is over 75% and the DC50 lay in the range of 1 to 10 nM.
As to `Cn1c(=O)n(C2CCC(=O)NC2=O)c2ccc(C3CCN(CC4CCN(c5ccc(-c6cc(-c7cc8c([nH]7)CCNC8=O)ccn6)c(F)c5)CC4)CC3)cc21` (centres unmarked) [Compound I-305], at MK2 [1], the Dmax was over 75% and the DC50 is under 1 nM. Moreover, at MK2 [2], the Dmax was over 75% and the DC50 was under 1 nM.
